Source: patent publication US10799555B2, “PD-1 peptide inhibitors” (Leidos, Inc., priority 2016, dated 2020)
Residues, ends and D or L forms follow the SMILES beside them.

Tests used:
[1] = target: soluble recombinant human PD-1 receptor (Homo sapiens, UniProt Q15116); experiment: Clonal phage ELISA of phage display library clones; type: binding; details: for Clonal Phase ELISA coated signal: after fifth round of panning; for Clonal Phase ELISA uncoated signal: uncoated (background)
Excerpt: The TriCo-20™ (TRICO-20™) and TriCo-16™ (TRICO-16™) Phage Display Peptide Libraries (Creative Biolabs, 45-1 Ramsey Road, Shirley, N.Y. 11967) were screened to identify binders of soluble recombinant human PD-1 receptor. After the fourth round of panning, obvious enrichment for specific binders was observed, and individual peptides were confirmed as weakly specific binders in a clonal phage ELISA. A fifth round of panning led to greater enrichment.

[2] = tested on: human PBMCs; type: cell-based; parameters: key: “x” indicates no effect; “−” indicates a possible low effect; “+” indicates some effect; “++” indicates a definite effect
[3] = target: T1, mouse PD-1 (Mus musculus, UniProt Q02242); experiment: BIACORE assay, mouse PD-1; type: binding; details: for binding / affinity towards mouse PD-1 (in words): BIACORE; for Rmax / KA / Kd: ligand mouse PD-1 10,000 RU, 25° C.; for KA / Kd: steady state equilibrium
T1 sequence (Q02242 25-288): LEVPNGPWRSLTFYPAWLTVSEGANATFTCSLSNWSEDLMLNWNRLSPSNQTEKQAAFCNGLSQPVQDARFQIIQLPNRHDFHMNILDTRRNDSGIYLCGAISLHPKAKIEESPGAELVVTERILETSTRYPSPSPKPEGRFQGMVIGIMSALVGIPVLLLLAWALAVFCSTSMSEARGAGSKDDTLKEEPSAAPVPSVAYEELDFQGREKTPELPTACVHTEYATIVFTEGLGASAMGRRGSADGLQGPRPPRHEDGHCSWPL
Procedure: (§1) BIACORE® assays were carried out using a BIACORE® T-200 at 25° C. The assay and regeneration buffers contained 10 mM HEPES (pH 7.4), 150 mM NaCl, 3 mM EDTA, and 0.05% P20. The immobilization buffer was 10 mM sodium acetate, pH 5.0. The flow rate used for immobilizing the ligand was 5 μl/min. The flow rate for kinetics analysis was 30 μl/min.
12,000 response units (RU) of human and 6000 RU of mouse PD-1 receptors were directly immobilized on flow cell 2 and flow cell 4 of the CMS chip by amine coupling method (EDC/NHS). The un-occupied sites were blocked with 1M ethanol amine. Scouting was performed at a single analyte concentration of 25 μM to confirm yes/no binding. Flow cell 1 was kept blank and used for reference subtraction. Binding of analyte to the ligand was monitored in real time.
Based on the scouting results, full kinetics were performed by immobilizing higher RU of the ligand to a new chip and analyte concentration at 25 μM, followed by serial dilution to 12.5, 6.25, 3.125, 1.562, 0.78 and 0 μM concentration or as indicated. Due to fast on rate and off rate, KD was determined by steady state equilibrium kinetics.
(§2) Chi square (χ2) analysis was carried out between the actual sensorgram and a sensorgram generated from the BIANALYSIS® software (black line) to determine the accuracy of the analysis. A χ2 value within 1-2 is considered significant (accurate) and below 1 is highly significant (highly accurate).

[4] = target: human PD-1 (Homo sapiens, UniProt Q15116); experiment: BIACORE assay, human PD-1; type: binding; details: for Rmax / KA / Kd: ligand human PD-1 10,000 RU, 25° C.; for KA / Kd: steady state equilibrium; for binding / affinity towards human PD-1 (in words): BIACORE
Procedure: as §1
[…] The un-occupied sites were blocked with 1M ethanol amine. Scouting was performed at a single analyte concentration of 25 μM to confirm yes/no binding. Flow cell 1 was kept blank and used for reference subtraction. Binding of analyte to the ligand was monitored in real time.
[…] Due to fast on rate and off rate, KD was determined by steady state equilibrium kinetics.
as §2

Chain of soluble recombinant human PD-1 receptor (Q15116 25-170 limits assumed): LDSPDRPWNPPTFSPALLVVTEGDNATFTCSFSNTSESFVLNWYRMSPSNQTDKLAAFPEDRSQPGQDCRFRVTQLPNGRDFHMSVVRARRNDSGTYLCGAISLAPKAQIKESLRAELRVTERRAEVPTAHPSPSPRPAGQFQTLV
Chain of human PD-1 (Q15116 25-288): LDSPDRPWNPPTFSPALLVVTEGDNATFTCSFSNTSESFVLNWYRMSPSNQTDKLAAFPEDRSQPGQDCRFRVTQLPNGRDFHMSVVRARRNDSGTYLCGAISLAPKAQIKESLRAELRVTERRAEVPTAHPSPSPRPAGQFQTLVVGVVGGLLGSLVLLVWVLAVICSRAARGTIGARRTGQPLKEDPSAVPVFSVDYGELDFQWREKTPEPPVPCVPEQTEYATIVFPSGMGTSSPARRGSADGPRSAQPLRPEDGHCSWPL

With `CC[C@H](C)[C@H](NC(=O)[C@H](CCCCN)NC(=O)[C@@H]1CCCN1C(=O)[C@H](CCSC)NC(=O)[C@@H]1CCCN1C(=O)[C@@H](NC(=O)[C@@H](NC(=O)[C@H](CCCNC(=N)N)NC(=O)[C@@H](NC(=O)[C@@H](N)CCC(N)=O)[C@@H](C)O)[C@@H](C)O)C(C)C)C(=O)N[C@@H](Cc1c[nH]cn1)C(=O)N[C@@H](Cc1c[nH]cn1)C(=O)N1CCC[C@H]1C(=O)N1CCC[C@H]1C(=O)N[C@@H](Cc1c[nH]c2ccccc12)C(=O)N[C@@H](CCC(N)=O)C(=O)N[C@@H](CC(N)=O)C(=O)N[C@H](C(=O)N[C@H](C(=O)N1CCC[C@H]1C(=O)O)C(C)C)C(C)C` [QP20] (H-QTRTVPMPKIHHPPWQNVVP-OH; N-terminus and C-terminus assumed) the “Clonal Phase ELISA coated signal” value [1] was 0.851, the “Clonal Phase ELISA uncoated signal” value [1] was 0.446 and the IFNγ production [2] was “x”. The IL-2 production [2] was “x”, the IL-4 production [2] was “−” and the IL-6 production [2] was “x”. The IL-10 production [2] was “x”, the TNFα production [2] was “x” and the “binding / affinity towards mouse PD-1 (in words)” value [3] was “highest affinity”. For the same molecule, the Rmax [3] was 13.4 RU, the KA [3] was 18000 M⁻¹ and the Kd [3] was 55.4 µM. The Rmax [4] was 3.83 RU, the KA [4] was 93600 M⁻¹ and the Kd [4] was 10.7 µM.

`CSCC[C@H](NC(=O)CNC(=O)[C@@H](NC(=O)[C@H](Cc1c[nH]c2ccccc12)NC(=O)[C@H](Cc1c[nH]cn1)NC(=O)[C@H](CO)NC(=O)[C@H](CCCNC(=N)N)NC(=O)[C@@H](NC(=O)[C@H](CCC(N)=O)NC(=O)[C@H](Cc1ccc(O)cc1)NC(=O)[C@@H](NC(=O)[C@H](CCC(N)=O)NC(=O)[C@H](Cc1c[nH]cn1)NC(=O)[C@H](Cc1c[nH]cn1)NC(=O)[C@@H](N)Cc1c[nH]cn1)C(C)C)C(C)C)[C@@H](C)O)C(=O)N[C@@H](Cc1c[nH]cn1)C(=O)N[C@@H](CO)C(=O)NCC(=O)N[C@@H](Cc1c[nH]cn1)C(=O)N[C@@H](CC(=O)O)C(=O)O` [HD20] (H-HHHQVYQVRSHWTGMHSGHD-OH; N-terminus and C-terminus assumed) was tested, and the “Clonal Phase ELISA coated signal” value [1] was 0.281, the “Clonal Phase ELISA uncoated signal” value [1] was 0.109 and the IFNγ production [2] was “++”. For the same molecule, the IL-2 production [2] was “−”, the IL-4 production [2] was “x” and the IL-6 production [2] was “++”. For the same molecule, the IL-10 production [2] was “x”, the TNFα production [2] was “++” and the Rmax [3] was 76 RU. The KA [3] was 4250 M⁻¹, the Kd [3] was 235 µM and the “binding / affinity towards human PD-1 (in words)” value [4] was “highest affinity”. The Rmax [4] was 3.35 RU, the KA [4] was 318000 M⁻¹ and the Kd [4] was 3.41 µM.

For “Mouse PD-L1: mouse PD-L1 used as analyte on immobilized mouse PD-1 in BIACORE [reference compound]”, the Rmax [3] was 259 RU and the KA [3] was 2.75e+06 M⁻¹.

In the case of `CSCC[C@H](NC(=O)[C@H](CCCCN)NC(=O)[C@H](Cc1ccccc1)NC(=O)[C@H](Cc1c[nH]cn1)NC(=O)[C@H](Cc1c[nH]cn1)NC(=O)[C@H](Cc1ccc(O)cc1)NC(=O)[C@H](CO)NC(=O)[C@@H](N)CO)C(=O)N1CCC[C@H]1C(=O)N[C@@H](CCC(=O)O)C(=O)N[C@@H](CC(C)C)C(=O)N[C@@H](Cc1c[nH]cn1)C(=O)N[C@@H](Cc1ccccc1)C(=O)NCC(=O)N[C@@H](CCCCN)C(=O)N[C@@H](CC(N)=O)C(=O)N[C@H](C(=O)N[C@@H](Cc1ccccc1)C(=O)N[C@@H](Cc1c[nH]cn1)C(=O)N[C@@H](CCC(N)=O)C(=O)O)[C@@H](C)O` [SQ20] (H-SSYHHFKMPELHFGKNTFHQ-OH; N-terminus and C-terminus assumed), the “Clonal Phase ELISA coated signal” value [1] is reported as 0.284, the “Clonal Phase ELISA uncoated signal” value [1] is reported as 0.159 and the IFNγ production [2] is reported as “++”. For the same molecule, the IL-2 production [2] was “+”, the IL-4 production [2] was “−” and the IL-6 production [2] was “++”. For the same molecule, the IL-10 production [2] was “+”, the TNFα production [2] was “+” and the “binding / affinity towards mouse PD-1 (in words)” value [3] was “highest affinity”. It also gave an Rmax [3] of 12.8 RU, a KA [3] of 21400 M⁻¹ and a Kd [3] of 46.8 µM. For the same molecule, the “binding / affinity towards human PD-1 (in words)” value [4] was “highest affinity”, the Rmax [4] was 4.05 RU and the KA [4] was 194000 M⁻¹. For the same molecule, the Kd [4] was 5.16 µM.

`CC[C@H](C)[C@H](NC(=O)[C@H](Cc1c[nH]c2ccccc12)NC(=O)[C@H](CCC(=O)O)NC(=O)[C@H](Cc1c[nH]cn1)NC(=O)[C@H](CCC(=O)O)NC(=O)[C@H](Cc1c[nH]cn1)NC(=O)[C@@H]1CCCN1C(=O)[C@H](CCCNC(=N)N)NC(=O)[C@@H](NC(=O)[C@H](Cc1c[nH]cn1)NC(=O)[C@H](Cc1c[nH]cn1)NC(=O)[C@H](CC(N)=O)NC(=O)[C@H](Cc1c[nH]cn1)NC(=O)[C@H](Cc1ccccc1)NC(=O)[C@H](CO)NC(=O)[C@H](C)NC(=O)[C@@H]1CCCN1C(=O)[C@H](CC(C)C)NC(=O)[C@H](CC(N)=O)NC(=O)[C@@H](N)Cc1c[nH]c2ccccc12)[C@@H](C)CC)C(=O)N[C@@H](CCC(N)=O)C(=O)O` [WQ20] (H-WNLPASFHNHHIRPHEHEWIQ-OH; N-terminus and C-terminus assumed) was tested, and the “Clonal Phase ELISA coated signal” value [1] was 0.275, the “Clonal Phase ELISA uncoated signal” value [1] was 0.115 and the IFNγ production [2] was “++”. For the same molecule, the IL-2 production [2] was “−”, the IL-4 production [2] was “++” and the IL-6 production [2] was “++”. The IL-10 production [2] was “x”, the TNFα production [2] was “++” and the Rmax [3] was 270 RU. For the same molecule, the KA [3] was 1310 M⁻¹, the Kd [3] was 761 µM and the Rmax [4] was 84.7 RU. The KA [4] was 3280 M⁻¹ and the Kd [4] was 305 µM.
